# Reference: PMC7076739, “Cytotoxycity and antiplasmodial activity of phenolic derivatives from Albizia zygia (DC.) J.F. Macbr. (Mimosaceae)” (BMC Complementary Medicine and Therapies, 2020)
# Like-named read-outs stand apart in the source and are kept apart here.
# Assays:
# [1] = test system: P. falciparum strain 3D7; experiment: P. falciparum 3D7 lactate dehydrogenase assay; format: cell-based, Plasmodium falciparum; settings: for IC50: read-out: IC50 against P. falciparum; for SI = IC50 HepG2 cell/IC50 P. falciparum: selectivity index, HepG2 vs P. falciparum; for times more active than natural precursor quercetin 3-O-α-L-rhamnopyranoside (2) against P. falciparum: antiplasmodial activity, strain 3D7
# Procedure: P. falciparum 3D7 lactate dehydrogenase assay: Parasites of the P. falciparum strain 3D7 were grown in fresh group 0 positive human erythrocytes, obtained from the Centro Regional de Transfusion Sanguınea-SAS (Granada, Spain). This assay was performed in duplicate for each compound using a sixteen (16) point dose response curve (½ serial dilutions) with concentrations starting from 50 μM until 1.5 nM to determine the IC50s of the compounds. Adding 25 μL of P. falciparum 3D7 parasite culture (per well) containing parasitized red blood cells at 0.25% parasitaemia and 2% haematocrit in RPMI-1640, 5% Albumax II, 2% […] 0.3% glutamine and 150 μM hypoxanthine and incubated at 37 °C for 72 h with 5% CO2, 5% O2 and 95% N2. For negative and positive growth controls, 10 μM chloroquine and complete parasite growth medium were respectively used. The final readouts of the assay was done by measuring the absorbance of the reactions at 650 nm in an Envision plate reader (Perkin Elmer, USA) and the results analysed by Genedata software (GenedataAG, Basel, Switzerland), parasite growth was measured by LDH assay as previously described.
# The natural compounds isolated from the leaves of A. zygia as well as their semi-synthetic derivatives were tested against Plasmodium falciparum (Table 1) using a microdilution method in liquid medium as previously described.
# [2] = test system: MiaPaca-2; experiment: MTT cytotoxicity assay, MiaPaca-2; format: cell-based; settings: Homo sapiens, read-out: IC50 MiaPaca-2
# From the text: (§1) Anticancer assays: Five tumor cell lines (MiaPaca-2 (CRL-1420), a carcinoma pancreatic […]; Hep G2 (HB-80665), a perpetual cell line which was derived from the liver tissue of a […] with a well-differentiated hepatocellular carcinoma; A549 (CCL-185), a carcinoma lung from […]; A2058 (CRL-11147), Human skin melanoma from an adult derived from lymph node and MCF-7 (HTB-22), a breast adenocarcinoma […]) were obtained from ATCC. The MTT (3-(4,5-dimethylthiazol-2-yl)-2,5-diphenyltetrazoliumbromide) colorimetric assay, which measures mitochondrial metabolic activity, was employed to estimate the amount of living cells. According to the huge amount of celles to be plated, SelecT (TAP Biosystems, Royston, UK), a cell culture robotic system was used to process ten thousand cells per well (for 72 h assay). Cells were seeded at a concentration of 1× 10^4 cells/well in 200 μl culture medium and incubated at 37 °C in 5% CO2. After 24 h, the automated liquid-handling system Biomek FX (Beckman Coulter, Pasadena, CA, USA) was used to replace the medium with a final volume of 200 μL and 1 μL of compound (dilution 1/200) and to add controls to the plates and which were then be incubated for 72 h. The test compounds were examined in triplicate with serial two-fold dilutions. After incubation, MTT solution was prepared at 5 mg/mL in PBS 1X and then diluted at 0.5 mg/mL in MEM without phenol red. The sample solution in wells was removed and 100 μL of MTT dye was added to each well. The plates were gently shaken and incubated for 3 h at 37 °C in 5% CO2 incubator. The supernatant was removed and 100 μL of DMSO 100% was added. The plates were gently shaken to solubilize theoriginated formazan and absorbance at 570 nm was read in a Victor2 Wallac spectrofluorometer (PerkinElmer, Waltham, MA, USA). IC50 values were calculated as the concentration that decreases 50% of the cell viability using Genedata Screener software (Genedata AG, Basel, Switzerland). Curve fitting followed the Smart Fit strategy with Hill model selection.
# [3] = test system: A-549; experiment: MTT cytotoxicity assay, A-549; format: cell-based; settings: Homo sapiens, read-out: IC50 A-549
# From the text: as §1
# [4] = test system: MCF-7; experiment: MTT cytotoxicity assay, MCF-7; format: cell-based; settings: Homo sapiens, MCF7, 72 h, read-out: IC50 MCF-7
# From the text: as §1
# [5] = test system: HepG2; experiment: MTT cytotoxicity assay, HepG2; format: cell-based; settings: Homo sapiens, read-out: IC50 HepG2
# From the text: as §1
# [6] = test system: A2058; experiment: MTT cytotoxicity assay, A2058; format: cell-based; settings: Homo sapiens, A2058, 72 h, read-out: IC50 A2058
# From the text: as §1
# [7] = Plasmodium falciparum, 3D7, 72 h
# [8] = Plasmodium falciparum, 3D7, 72 h, strain 3D7, 72 h, LDH readout
compound,measurement,setting,value
"CCN(CC)CCCC(C)Nc1ccnc2cc(Cl)ccc12 (stereo not shown) [Chloroquine, chloroquine, reference compound]",IC50,[1]; [7],0.00296 µM
"O=C(O)Cc1ccc(O)cc1OC1OC(CO)C(O)C(O)C1O [Compound 1, 2-O-β-D-glucopyranosyl-4-hydroxyphenylacetic acid]",IC50,"[2]; MIA PaCa-2, MTT, 72 h",30.3 ± 0.25 µM
same,IC50,"[3]; A549, MTT, 72 h",121.2 ± 0.25 µM
same,IC50,"[4]; MTT, 72 h",42.7 ± 0.25 µM
same,IC50,"[5]; HepG2, MTT, 72 h",121.2 ± 0.25 µM
same,IC50,"[6]; MTT, 72 h",66.7 ± 0.25 µM
same,IC50,[1]; [8],> 100 µM
"C[C@@H]1O[C@@H](Oc2c(-c3ccc(O)c(O)c3)oc3cc(O)cc(O)c3c2=O)[C@H](O)[C@H](O)[C@H]1O [Compound 2, quercetin 3-O-α-L-rhamnopyranoside]",IC50,"[2]; MIA PaCa-2, 72 h",87.5 ± 0.25 µM
same,IC50,"[3]; A549, 72 h",89.5 ± 0.25 µM
same,IC50,[4],87.5 ± 0.25 µM
same,IC50,"[5]; HepG2, 72 h",87.5 ± 0.25 µM
same,IC50,[6],87.5 ± 0.25 µM
same,IC50,[1]; [7],25.1 ± 0.25 µM
same,SI = IC50 HepG2 cell/IC50 P. falciparum,[1],(3.49)
"C[C@@H]1O[C@@H](Oc2c(-c3ccc(O)cc3)oc3cc(O)cc(O)c3c2=O)[C@H](O)[C@H](O)[C@H]1O [Compound 3, kaempferol 3-O-α-L-rhamnopyranoside]",IC50,"[2]; MIA PaCa-2, MTT, 72 h",46.4 ± 0.25 µM
same,IC50,"[3]; A549, MTT, 72 h",23.2 ± 0.25 µM
same,IC50,"[4]; MTT, 72 h",46.4 ± 0.25 µM
same,IC50,"[5]; HepG2, MTT, 72 h",23.2 ± 0.25 µM
same,IC50,"[6]; MTT, 72 h",46.4 ± 0.25 µM
same,IC50,[1]; [8],19 ± 0.25 µM
same,SI = IC50 HepG2 cell/IC50 P. falciparum,[1],(1.22)
"C[C@@H]1O[C@@H](Oc2ccc(-c3oc4cc(O)cc(O)c4c(=O)c3O[C@@H]3O[C@@H](C)[C@H](O)[C@@H](O)[C@H]3O)cc2O)[C@H](O)[C@H](O)[C@H]1O [Compound 4, quercetin 3,4′-di-O-α-L-rhamnopyranoside]",IC50,"[2]; MIA PaCa-2, MTT, 72 h",17.3 ± 0.25 µM
same,IC50,"[3]; A549, MTT, 72 h",34.6 ± 0.25 µM
same,IC50,"[4]; MTT, 72 h",17.3 ± 0.25 µM
same,IC50,"[5]; HepG2, MTT, 72 h",17.3 ± 0.25 µM
same,IC50,"[6]; MTT, 72 h",34.6 ± 0.25 µM
same,IC50,[1]; [8],> 100 µM
"C[C@@H]1O[C@@H](Oc2ccc(-c3oc4cc(O)cc(O)c4c(=O)c3O[C@@H]3O[C@@H](C)[C@H](O)[C@@H](O)[C@H]3O)cc2)[C@H](O)[C@H](O)[C@H]1O [Compound 5, kaempferol 3,4′-di-O-α-L-rhamnopyranoside]",IC50,"[2]; MIA PaCa-2, MTT, 72 h",16.8 ± 0.25 µM
same,IC50,"[3]; A549, MTT, 72 h",33.7 ± 0.25 µM
same,IC50,"[4]; MTT, 72 h",33.7 ± 0.25 µM
same,IC50,"[5]; HepG2, MTT, 72 h",16.8 ± 0.25 µM
same,IC50,"[6]; MTT, 72 h",33.7 ± 0.25 µM
same,IC50,[1]; [8],> 100 µM
CC(=O)OCC1OC(Oc2cc(O)ccc2CC(=O)O)C(OC(C)=O)C(OC(C)=O)C1OC(C)=O (stereo not shown) [Compound 7],IC50,"[2]; MIA PaCa-2, MTT, 72 h",10 ± 0.25 µM
same,IC50,"[3]; A549, MTT, 72 h",20.1 ± 0.25 µM
same,IC50,"[4]; MTT, 72 h",37 ± 0.25 µM
same,IC50,"[5]; HepG2, MTT, 72 h",37 ± 0.25 µM
same,IC50,"[6]; MTT, 72 h",37 ± 0.25 µM
same,IC50,[1]; [8],> 100 µM
CC(=O)OCC1OC(Oc2cc(OC(C)=O)ccc2CC(=O)O)C(OC(C)=O)C(OC(C)=O)C1OC(C)=O (stereo not shown) [Compound 8],IC50,"[2]; MIA PaCa-2, MTT, 72 h",18.5 ± 0.25 µM
same,IC50,"[3]; A549, MTT, 72 h",20.1 ± 0.25 µM
same,IC50,"[4]; MTT, 72 h",40.2 ± 0.25 µM
same,IC50,"[5]; HepG2, MTT, 72 h",40.2 ± 0.25 µM
same,IC50,"[6]; MTT, 72 h",40.2 ± 0.25 µM
same,IC50,[1]; [8],> 100 µM
CC(=O)OC1C(C)OC(Oc2c(-c3ccc(O)c(O)c3)oc3cc(O)cc(O)c3c2=O)C(OC(C)=O)C1OC(C)=O (stereo not shown) [Compound 9],IC50,"[2]; MIA PaCa-2, MTT, 72 h",17.4 ± 0.25 µM
same,IC50,"[3]; A549, MTT, 72 h",34.8 ± 0.25 µM
same,IC50,"[4]; MTT, 72 h",10.8 ± 0.25 µM
same,IC50,"[5]; HepG2, MTT, 72 h",22.6 ± 0.25 µM
same,IC50,"[6]; MTT, 72 h",12.2 ± 0.25 µM
same,IC50,[1]; [8],7.47 ± 0.25 µM
same,times more active than natural precursor quercetin 3-O-α-L-rhamnopyranoside (2) against P. falciparum,[1],over 3 times
same,IC50,"[1]; strain 3D7, 72 h, LDH readout",7.5 ± 0.25 µM
CC(=O)Oc1cc(O)c2c(=O)c(OC3OC(C)C(OC(C)=O)C(OC(C)=O)C3OC(C)=O)c(-c3ccc(O)c(O)c3)oc2c1 (stereo not shown) [Compound 10],IC50,"[2]; MIA PaCa-2, MTT, 72 h",64.9 ± 0.25 µM
same,IC50,"[3]; A549, MTT, 72 h",30.5 ± 0.25 µM
same,IC50,"[5]; HepG2, MTT, 72 h",64.9 ± 0.25 µM
same,IC50,[1]; [8],6.77 ± 0.25 µM
same,times more active than natural precursor quercetin 3-O-α-L-rhamnopyranoside (2) against P. falciparum,[1],over 3 times
same,IC50,"[1]; strain 3D7, 72 h, LDH readout",6.8 ± 0.25 µM
"COc1cccc2c1C(=O)c1c(O)c3c(c(O)c1C2=O)C[C@@](O)(C(=O)CO)C[C@@H]3O[C@H]1C[C@H](N)[C@H](O)[C@H](C)O1 [Doxorubicin, reference compound]",IC50,"[2]; MIA PaCa-2, MTT, 72 h",< 7e-05 µM
same,IC50,"[3]; A549, MTT, 72 h",< 7e-05 µM
same,IC50,"[4]; MTT, 72 h",< 7e-05 µM
same,IC50,"[5]; HepG2, MTT, 72 h",< 7e-05 µM
same,IC50,"[6]; MTT, 72 h",< 7e-05 µM
